Test results taken from patent US10479792B2, “Compounds” (GlaxoSmithKline Intellectual Property Development Limited, priority 2015, dated 2019).

What was measured:
[1] = Solubility assay, ChemiLuminescent Nitrogen Detection (CLND) (Assay 4); format: physicochemical; conditions: phosphate buffered saline (PBS) pH 7.4, aqueous buffer, kinetic from dmso stock, PBS pH 7.4, from 10 mM DMSO stock, 1 h at room temperature
Experimental: Assay 4. Solubility Assay—ChemiLuminescent Nitrogen Detection (CLND) I. Compounds A 10 mM DMSO stock solution of the compound was prepared. Solvents and Buffers Organic solvents of HPLC grade were used. Ultra pure water (Milli-Q grade) was used. Buffers were prepared with ultra pure water and filtered using 0.45μ cameo filters. Aqueous Buffer Solution: Phosphate Buffer Saline (PBS) @ pH 7.4 was prepared from Sigma dry powder packs, P-3813. Each one was diluted to 1 liter with deionised water. The pH was checked before the solution was used II. Procedures. • a) DMSO concentration was measured. DMSO blanks and ondansetron and caffeine standards were added to the plate (column 12, A, B, C, & D for the blanks and E, F, G, & H for the standards). Plates were covered with foil. When the UV and CLND detectors baselines appeared to be stable, the CLND was zeroed. • b) Once DMSO concentration measurements were complete, a filtration plate was prepared from each parent plate by diluting 5 μl of the 10 mM DMSO stock solution to […] with pH7.4 PBS. • c) After the plates were prepared, they were covered with a plate lid and left to incubate for 1 h at room temperature. • d) Sample was filtered using MILLIPORE MultiScreen Solubility (MSSLBPC10) Filtration Plates, to NUNC V well plates. […]

THP-1 cells = assay: Leishmania donovani intracellular assay (Assay 5), THP-1 cytotoxicity; format: cell-based; conditions: human, 96 h incubation, read-out: cytotoxicity against THP-1 cells, pEC50 (converted)
Experimental: Assay 5. Leishmania donovani Intracellular Assay
Compounds were dispensed into black 384-well assay plates (Greiner) by acoustic dispensing (LabCyte ECHO). For potency determinations, eleven-point, one in three dilution curves were generated, with a top concentration of 50 μM. THP-1 human monocytes cells were dispensed in T225 tissue culture flasks and differentiated using 30 nM of PMA, after 24 hours they were infected overnight using Leishmania donovani expressing Green Fluorescent Protein (eGFP) amastigotes in the same T225 tissue culture flasks at a multiplicity of infection of 10. Next, any remaining free amastigotes were washed away with PBS and the infected THP-1 cells were harvested by trypsinisation. The infected cells were then plated into 384-well plates containing the compounds to be tested, at 3000 cells per well in RPMI media with 2% FBS and 25 mM Sodium bicarbonate. After 96 h incubation at 37° C. in presence of 5% CO2, the plates were fixed with 4% formaldehyde for 30 minutes, washed with PBS and stained with 0.1 mg/mL of DAPI for 30 minutes and washed again with PBS. The plates were imaged on a Perkin Elmer Opera high-content imaging system using a 20× air objective with two expositions, one for DAPI stain and other for eGFP. Images were analysed using the Acapella building blocks system (Perkin Elmer). The image analysis algorithm first identified the THP-1 nuclei followed by demarcation of the cytoplasm and identification of intracellular amastigotes. This algorithm reported mean number of parasites per THP-1 cell, the percentage of infected THP-1 cells and the total number of THP-1 cells.

Trypanosoma brucei = Trypanosoma brucei cell growth inhibition assay (Assay 3); format: cell-based, T. b. brucei, BSF427, VSG118; conditions: 69 h + 4 h resazurin, read-out: pEC50 value against Trypanosoma brucei (converted)
Experimental: Assay 3. Trypanosoma brucei Cell Growth Inhibition Assay
Measurement of the ability of the compounds to inhibit trypanosome (T. b. brucei, BSF427, VSG118) cell growth was performed using a modification of the cell viability assay previously described by Raz et al. (Raz B.; Iten M.; Grether-Buhler Y.; Kaminski R.; Brun R. The Alamar Blue assay to determine drug sensitivity of African trypanosomes (T. b. rhodesiense and T. b. gambiense) in vitro. Acta Trop. 1997, 68, 139-147). Compounds were dissolved in DMSO at a top concentration of 10 mM and serially diluted in half log steps to achieve a range of final assay concentrations of 50 μM to 0.5 nM. Compound at each concentration (200-fold final) was added to clear 96-well tissue culture plates in a volume of 1 μL. […] Plates were then read on a BioTek flx800 fluorescent plate reader, and percentage inhibition was compared to the maximum and minimum assay controls. Concentration effect curves were fitted using nonlinear regression using XLFit 4.2 and EC50 values determined.

Q: With `O=C(Nc1ccc(F)c(-c2ccn3c(N4CCOCC4)cnc3n2)c1)N1CCCC1` [Example 4, N-(4-fluoro-3-(3-morpholinoimidazo[1,2-a]pyrimidin-7-yl)phenyl)pyrrolidine-1-carboxamide] as the compound, how does the solubility at 1 h [1] read?
A: Its solubility at 1 h is greater than 444 µM.

Q: What about the EC50 at 96 h (THP-1 cells) of the same compound?
A: The EC50 at 96 h was greater than 50100 nM.

Q: And the EC50 (Trypanosoma brucei)?
A: Its EC50 is 10 nM.
